This passage reports T/C results from PubChem BioAssay AID248 (DTP/NCI, 2004).

SMILES strings stand for the structures. Where “and” joins values, the source holds several entries; their conditions need not be identical. Identical values can stand only once. Toxic doses and inconclusive results are not listed.

The subject of the assay is L1210 leukemia ip in BDF1 mice, survival T/C. In words: NCI In Vivo Anticancer Drug Screen. Data for tumor model L1210 Leukemia (intraperitoneal) in B6D2F1 (BDF1) mice. Particulars: higher = longer survival. In short, it runs like this: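 Mice bearing the transplanted tumor received compound or vehicle. Survival of the treated group was divided by that of the vehicle-treated control group to give the ratio.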

Setting [1] is: endpoint: mean survival time, dose: 100.0 mg/kg/injection, schedule: Q01DX001 (ip), vehicle: saline.
The mark [2] stands for this setting: endpoint: mean survival time, dose: 100.0 mg/kg/injection, schedule: Q04DX003 (ip), vehicle: saline.
Setting [3] is: endpoint: mean survival time, dose: 200.0 mg/kg/injection, schedule: Q04DX003 (ip), vehicle: saline.
Where [4] appears, read: endpoint: mean survival time, dose: 400.0 mg/kg/injection, schedule: Q04DX003 (ip), vehicle: saline.

On to `Cn1cnc([N+](=O)[O-])c1Sc1nc(N)nc2nc[nH]c12`, for which the T/C is, setting by setting: (endpoint: mean survival time, dose: 0.16 mg/kg/injection, schedule: Q#A X030 (oral), vehicle: saline) 110 % of control; (endpoint: mean survival time, dose: 0.31 mg/kg/injection, schedule: Q#A X030 (oral), vehicle: saline) 106 % of control; (endpoint: mean survival time, dose: 0.62 mg/kg/injection, schedule: Q#A X030 (oral), vehicle: saline) 108 % of control; (endpoint: mean survival time, dose: 0.9 mg/kg/injection, schedule: Q03DX005 (oral), vehicle: saline) 101 % of control; (endpoint: mean survival time, dose: 1.2 mg/kg/injection, schedule: Q01DX006 (iv), vehicle: saline) 105 % of control; (endpoint: mean survival time, dose: 1.2 mg/kg/injection, schedule: Q01DX Z (im), vehicle: saline) 105 % of control. For the same molecule, the T/C (endpoint: mean survival time, dose: 1.2 mg/kg/injection, schedule: Q01DX Z (ip), vehicle: saline) was 168 % of control; the T/C (endpoint: mean survival time, dose: 1.2 mg/kg/injection, schedule: Q01DX Z (sc), vehicle: saline) is 166 % of control; the T/C (endpoint: mean survival time, dose: 1.25 mg/kg/injection, schedule: Q01DX010 (ip), vehicle: saline) was 112 % of control and 120 % of control; the T/C (endpoint: mean survival time, dose: 1.25 mg/kg/injection, schedule: Q#A X030 (oral), vehicle: saline) is 113 % of control; the T/C (endpoint: mean survival time, dose: 1.6 mg/kg/injection, schedule: Q01DX001 (oral), vehicle: saline) is 110 % of control; the T/C (endpoint: mean survival time, dose: 1.9 mg/kg/injection, schedule: Q03DX005 (oral), vehicle: saline) is 106 % of control. Moreover, the T/C reads like this: (endpoint: mean survival time, dose: 2.1 mg/kg/injection, schedule: Q07DX003 (oral), vehicle: saline) 102 % of control; (endpoint: mean survival time, dose: 2.5 mg/kg/injection, schedule: Q01DX006 (iv), vehicle: saline) 109 % of control; (endpoint: mean survival time, dose: 2.5 mg/kg/injection, schedule: Q01DX009 (ip), vehicle: saline) 151 % of control and 159 % of control; (endpoint: mean survival time, dose: 2.5 mg/kg/injection, schedule: Q01DX010 (ip), vehicle: saline) 154 % of control and 155 % of control; (endpoint: mean survival time, dose: 2.5 mg/kg/injection, schedule: Q01DX Z (im), vehicle: saline) 100 % of control; (endpoint: mean survival time, dose: 2.5 mg/kg/injection, schedule: Q01DX Z (ip), vehicle: saline) 150 % of control. Further, the T/C was 104 % of control and 108 % of control (endpoint: mean survival time, dose: 3.13 mg/kg/injection, schedule: Q01DX001 (oral), vehicle: saline); 104 % of control (endpoint: mean survival time, dose: 3.8 mg/kg/injection, schedule: Q03DX005 (oral), vehicle: saline); 106 % of control (endpoint: mean survival time, dose: 4.3 mg/kg/injection, schedule: Q07DX003 (oral), vehicle: saline); 156 % of control (endpoint: mean survival time, dose: 5.0 mg/kg/injection, schedule: Q01DX009 (ip), vehicle: saline); 161 % of control and 163 % of control (endpoint: mean survival time, dose: 5.0 mg/kg/injection, schedule: Q01DX010 (ip), vehicle: saline); 166 % of control (endpoint: mean survival time, dose: 5.0 mg/kg/injection, schedule: Q01DX Z (ip), vehicle: saline). Further, the T/C (endpoint: mean survival time, dose: 5.0 mg/kg/injection, schedule: Q01DX Z (oral), vehicle: saline) is 116 % of control; the T/C (endpoint: mean survival time, dose: 5.0 mg/kg/injection, schedule: Q01DX Z (sc), vehicle: saline) is 209 % of control; the T/C (endpoint: mean survival time, dose: 6.0 mg/kg/injection, schedule: Q01DX001 (ip), vehicle: saline) is 109 % of control and 113 % of control; the T/C (endpoint: mean survival time, dose: 6.25 mg/kg/injection, schedule: Q01DX001 (oral), vehicle: saline) is 102 % of control; the T/C (endpoint: mean survival time, dose: 7.5 mg/kg/injection, schedule: Q03DX005 (oral), vehicle: saline) is 112 % of control; the T/C (endpoint: mean survival time, dose: 8.7 mg/kg/injection, schedule: Q07DX003 (oral), vehicle: saline) was 113 % of control. Also, the T/C is, setting by setting: (endpoint: mean survival time, dose: 10.0 mg/kg/injection, schedule: Q01DX010 (ip), vehicle: saline) 152 % of control; (endpoint: mean survival time, dose: 10.0 mg/kg/injection, schedule: Q01DX Z (oral), vehicle: saline) 123 % of control; (endpoint: mean survival time, dose: 12.5 mg/kg/injection, schedule: Q01DX001 (oral), vehicle: saline) 110 % of control; (endpoint: mean survival time, dose: 17.5 mg/kg/injection, schedule: Q07DX003 (oral), vehicle: saline) 122 % of control; (endpoint: mean survival time, dose: 20.0 mg/kg/injection, schedule: Q01DX006 (iv), vehicle: saline) 153 % of control; (endpoint: mean survival time, dose: 20.0 mg/kg/injection, schedule: Q01DX009 (ip), vehicle: saline) 114 % of control and 120 % of control. In addition, the T/C by setting is: (endpoint: mean survival time, dose: 22.0 mg/kg/injection, schedule: Q01DX001 (ip), vehicle: carboxymethylcellulose (CMC)) 166 % of control; (endpoint: mean survival time, dose: 25.0 mg/kg/injection, schedule: Q01DX001 (ip), vehicle: saline) 116 % of control and 239 % of control; (endpoint: mean survival time, dose: 35.0 mg/kg/injection, schedule: Q01DX001 (ip), vehicle: carboxymethylcellulose (CMC)) 174 % of control; (endpoint: mean survival time, dose: 40.0 mg/kg/injection, schedule: Q01DX Z (oral), vehicle: saline) 174 % of control; (endpoint: mean survival time, dose: 52.0 mg/kg/injection, schedule: Q01DX001 (ip), vehicle: carboxymethylcellulose (CMC)) 180 % of control; (endpoint: mean survival time, dose: 78.0 mg/kg/injection, schedule: Q01DX001 (ip), vehicle: carboxymethylcellulose (CMC)) 196 % of control. Also, the T/C runs as follows: (endpoint: mean survival time, dose: 80.0 mg/kg/injection, schedule: Q01DX Z (oral), vehicle: saline) 163 % of control; under setting [1], 200 % of control and 254 % of control; (endpoint: mean survival time, dose: 160.0 mg/kg/injection, schedule: Q01DX Z (im), vehicle: saline) 96 % of control; (endpoint: mean survival time, dose: 160.0 mg/kg/injection, schedule: Q01DX Z (oral), vehicle: saline) 111 % of control; (endpoint: mean survival time, dose: 320.0 mg/kg/injection, schedule: Q01DX Z (oral), vehicle: saline) 91 % of control; (endpoint: mean survival time, dose: 640.0 mg/kg/injection, schedule: Q01DX Z (oral), vehicle: saline) 86 % of control. For the same molecule, the T/C reads like this: (endpoint: mean survival time, dose: 960.0 mg/kg/injection, schedule: Q03DX005 (oral), vehicle: saline) 106 % of control; (endpoint: mean survival time, dose: 1920.0 mg/kg/injection, schedule: Q03DX005 (oral), vehicle: saline) 100 % of control; (endpoint: median survival time, dose: 2.5 mg/kg/injection, schedule: Q01DX009 (ip), vehicle: saline) 150 % of control; (endpoint: median survival time, dose: 10.0 mg/kg/injection, schedule: Q01DX009 (ip), vehicle: saline) 115 % of control; (endpoint: median survival time, dose: 20.0 mg/kg/injection, schedule: Q01DX009 (ip), vehicle: saline) 100 % of control and 118 % of control.
As to `CCC[CH2][Sn]([c]1ccccc1)([c]1ccccc1)[c]1ccccc1`, the T/C is, setting by setting: (endpoint: mean survival time, dose: 25.6 mg/kg/injection, schedule: Q04DX002 (ip), vehicle: saline with Tween-80) 90 % of control; (endpoint: mean survival time, dose: 64.0 mg/kg/injection, schedule: Q04DX002 (ip), vehicle: saline with Tween-80) 90 % of control; (endpoint: mean survival time, dose: 100.0 mg/kg/injection, schedule: Q04DX003 (ip), vehicle: saline with Tween-80) 88 % of control; (endpoint: mean survival time, dose: 160.0 mg/kg/injection, schedule: Q04DX002 (ip), vehicle: saline with Tween-80) 93 % of control; (endpoint: mean survival time, dose: 200.0 mg/kg/injection, schedule: Q04DX003 (ip), vehicle: saline with Tween-80) 96 % of control; (endpoint: mean survival time, dose: 400.0 mg/kg/injection, schedule: Q04DX002 (ip), vehicle: saline with Tween-80) 97 % of control.
For the molecule `CCCCN(C)N=Nc1ccc(CCC(=O)NN)cc1`, the T/C is, setting by setting: (endpoint: mean survival time, dose: 33.0 mg/kg/injection, schedule: Q01DX009 (ip), vehicle: carboxymethylcellulose (CMC)) 107 % of control; (endpoint: mean survival time, dose: 50.0 mg/kg/injection, schedule: Q01DX009 (ip), vehicle: carboxymethylcellulose (CMC)) 101 % of control.
Take `CCOC(=O)C(O)(CC)CCC(C)C` (configuration not stated): the T/C reads like this: (endpoint: mean survival time, dose: 50.0 mg/kg/injection, schedule: Q01DX009 (ip), vehicle: saline with Tween-80) 101 % of control; (endpoint: mean survival time, dose: 100.0 mg/kg/injection, schedule: Q01DX009 (ip), vehicle: saline with Tween-80) 101 % of control; (endpoint: mean survival time, dose: 200.0 mg/kg/injection, schedule: Q01DX009 (ip), vehicle: saline with Tween-80) 111 % of control.
`O=C1NC2(CCCCC2)C(=O)N1CCCl`: the T/C was 101 % of control (endpoint: mean survival time, dose: 50.0 mg/kg/injection, schedule: Q04DX003 (ip), vehicle: saline); 109 % of control under setting [2]; 106 % of control under setting [3]; 101 % of control under setting [4].
Consider `CN(C)Cc1cc(Cl)cc(Cc2cc(Cl)cc(CN(C)C)c2O)c1O`, for which the T/C by setting is: under setting [1], 100 % of control; under setting [2], 93 % of control; (endpoint: mean survival time, dose: 200.0 mg/kg/injection, schedule: Q01DX001 (ip), vehicle: saline) 94 % of control; under setting [3], 88 % of control; (endpoint: mean survival time, dose: 400.0 mg/kg/injection, schedule: Q01DX001 (ip), vehicle: saline) 96 % of control; under setting [4], 95 % of control.
`CN(C)Cc1c[nH]c2ncccc12`: the T/C (endpoint: mean survival time, dose: 6.25 mg/kg/injection, schedule: Q04DX003 (ip), vehicle: saline with Tween-80) was 98 % of control; the T/C (endpoint: mean survival time, dose: 12.5 mg/kg/injection, schedule: Q04DX003 (ip), vehicle: saline with Tween-80) was 96 % of control; the T/C (endpoint: mean survival time, dose: 25.0 mg/kg/injection, schedule: Q04DX003 (ip), vehicle: saline with Tween-80) was 102 % of control.
